According to patent US10426761B2, “Method for treatment of disease caused or aggravated by microorganisms or relieving symptoms thereof” (ARMS Pharmaceutical LLC, priority 2011, dated 2019):

Experiments:
[1] = system: F. nucleatum; experiment: MIC, CLSI reference method; assay type: cell-based, Fusobacterium nucleatum; conditions: 24 h
Protocol: (§1) Cells were allowed to grow in the presence or absence (growth control) of the test agents for 24 hours. The MIC for each agent was defined as the concentration that induced a 100% growth inhibition (compared to no-drug control).

[2] = system: P. gingivalis; experiment: MIC, CLSI reference method; assay type: cell-based; conditions: 24 h
Protocol: as §1

[3] = system: S. mitis; experiment: MIC, CLSI reference method; assay type: cell-based; conditions: 24 h
Protocol: as §1

[4] = system: S. mutans; experiment: MIC, CLSI reference method; assay type: cell-based; conditions: 24 h
Protocol: as §1

[5] = system: S. oralis; experiment: MIC, CLSI reference method; assay type: cell-based; conditions: 24 h
Protocol: as §1

[6] = system: S. pneumonia; experiment: MIC, CLSI reference method; assay type: cell-based; conditions: 24 h
Protocol: as §1

[7] = system: S. pyogenes; experiment: MIC, CLSI reference method; assay type: cell-based; conditions: 24 h
Protocol: as §1

[8] = system: S. salivarius; experiment: MIC, CLSI reference method; assay type: cell-based; conditions: 24 h, 100% growth inhibition
Protocol: as §1

[9] = system: Y. enterocolitica; experiment: MIC, CLSI reference method; assay type: cell-based; conditions: 24 h
Protocol: as §1

[10] = system: C. albicans; experiment: MIC, CLSI microdilution (Candida); assay type: cell-based
[11] = system: C. krusei; experiment: MIC, CLSI microdilution (Candida); assay type: cell-based
[12] = system: C. tropicalis; experiment: MIC, CLSI microdilution (Candida); assay type: cell-based
[13] = system: C. glabrata; experiment: MIC, CLSI microdilution (Candida); assay type: cell-based
[14] = system: Streptococcus salivarius, Candida albicans; experiment: in vitro filter insert-based barrier model (glycerin / xanthan gum)
Protocol: To identify further examples of concentrations of glycerin and xanthan gum that can form a barrier effective in preventing the passage of microorganisms, different concentrations of the gum xanthan gum and humectant glycerin were tested (5%-95% glycerin; 0.005%-0.5% xanthan gum) singly and in combination using an in vitro filter insert-based barrier model. […] Glycerin or xanthan gum or their combinations (100 μL aliquots) were overlaid on the surface of the filter to form a barrier. […] Next, 5×10^4 cells of either bacteria or fungi were applied on top of the formed barrier in the filter inserts. Next, we placed these filter inserts on the surface of agar medium (Brain Heart Infusion (BHI) medium for bacteria, Sabouraud Dextrose (SD) medium for fungi) in 6-well plates. The plates along with the filter inserts were incubated overnight for 24 hours at 37° C. The plates were monitored for the presence of bacterial or fungal growth CFUs (colony forming units) in the agar medium as well as in the filter insert.

| SMILES | MIC [1] [μg/mL chlorhexidine] | MIC [2] [μg/mL chlorhexidine] | MIC [3] [μg/mL chlorhexidine] | MIC [4] [μg/mL chlorhexidine] | MIC [5] [μg/mL chlorhexidine] | MIC [6] [μg/mL chlorhexidine] | MIC [7] [μg/mL chlorhexidine] | MIC [8] [μg/mL chlorhexidine] | MIC [9] [μg/mL chlorhexidine] | MIC [10] [μg/mL chlorhexidine] | MIC [11] [μg/mL chlorhexidine] | MIC [12] [μg/mL chlorhexidine] | MIC [13] [μg/mL chlorhexidine] | concentration at which a barrier was formed when tested alone [14] |
| --- | --- | --- | --- | --- | --- | --- | --- | --- | --- | --- | --- | --- | --- | --- |
| [H]/N=C(\N/C(=N/[H])NCCCCCCNC(=N)NC(=N)Nc1ccc(Cl)cc1)Nc1ccc(Cl)cc1 [Chlorhexidine, chlorhexidine gluconate] | 19.6 | 19.6 | 19.6 | 19.6 | 19.6 | 19.6 | 19.6 | 19.6 | 19.6 | 19.6 | 19.6 | 19.6 | 19.6 | – |
| OCC(O)CO [glycerin] | – | – | – | – | – | – | – | – | – | – | – | – | – | greater than or equal to 55% |
